Measured values published in ChEMBL document CHEMBL4417631, “Oral peptide inhibitors of interleukin-23 receptor and their use to treat inflammatory bowel diseases” (2017).
Where a SMILES comes first, the peptide text is derived from it. [ ]: non-standard residue; d: D form. hLeu = CC(C)CC[C@H](N)C(=O)O

How the values were obtained:
[1] = Inhibition of interleukin-23 binding to rat interleukin-23 receptor incubated for 2 hrs by competitive binding ELISA
Interleukin-23 receptor [2] = molecular target: T1, Interleukin-23 receptor (Homo sapiens, UniProt Q5VWK5); experiment: Inhibition of interleukin-23 receptor in human DB cells assessed as reduction in IL-23-stimulated STAT3 phosphorylation incubated for 30 mins by HTRF assay; type: cell-based
T1 sequence (Q5VWK5 whole entry): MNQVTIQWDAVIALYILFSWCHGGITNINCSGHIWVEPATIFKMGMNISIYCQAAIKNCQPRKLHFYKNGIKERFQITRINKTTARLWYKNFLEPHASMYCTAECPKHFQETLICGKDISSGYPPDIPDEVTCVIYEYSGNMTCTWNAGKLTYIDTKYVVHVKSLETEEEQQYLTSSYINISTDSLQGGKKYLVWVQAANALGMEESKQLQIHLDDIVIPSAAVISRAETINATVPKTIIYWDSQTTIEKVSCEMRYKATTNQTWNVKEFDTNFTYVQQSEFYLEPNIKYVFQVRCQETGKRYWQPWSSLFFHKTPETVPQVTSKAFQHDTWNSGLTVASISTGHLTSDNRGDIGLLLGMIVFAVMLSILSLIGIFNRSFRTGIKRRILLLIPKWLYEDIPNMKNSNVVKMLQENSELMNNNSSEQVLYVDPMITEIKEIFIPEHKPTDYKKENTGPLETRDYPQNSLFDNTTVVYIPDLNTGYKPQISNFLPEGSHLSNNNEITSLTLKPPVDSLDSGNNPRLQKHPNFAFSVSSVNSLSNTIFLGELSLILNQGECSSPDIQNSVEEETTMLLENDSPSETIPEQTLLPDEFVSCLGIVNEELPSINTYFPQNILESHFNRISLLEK

Interleukin-23 receptor [3] = molecular target: T1, Interleukin-23 receptor; experiment: Inhibition of interleukin-23 binding to human interleukin-23 receptor incubated for 2 hrs by competitive binding ELISA

Row | IC50 [1] | IC50 (Interleukin-23 receptor [2]) | IC50 (Interleukin-23 receptor [3]) | Structure (SMILES)
1 | 32 nM | 3 nM |  | CC(=O)NCCCC[C@H](NC(=O)[C@H](CCC(C)C)NC(=O)[C@H](Cc1c[nH]c2ccccc12)NC(=O)[C@H](Cc1ccc(O)cc1)NC(=O)[C@H](CS)NC(=O)[C@H](CCC(N)=O)NC(=O)[C@H](Cc1c[nH]c2ccccc12)NC(=O)[C@@H](NC(=O)[C@H](CCC(N)=O)NC(=O)[C@H](CS)NC(C)=O)[C@@H](C)O)C(=O)N[C@@H](CC(N)=O)C(=O)NCC(N)=O
2 | 140 nM |  | 61 to 362 nM | CC(=O)N[C@@H](CS)C(=O)N[C@@H](CCC(N)=O)C(=O)N[C@H](C(=O)N[C@@H](Cc1c[nH]c2ccccc12)C(=O)N[C@@H](CCC(N)=O)C(=O)N[C@@H](CS)C(=O)N[C@@H](Cc1ccc(O)cc1)C(=O)N[C@@H](Cc1c[nH]c2ccccc12)C(=O)N[C@@H](CCC(C)C)C(=O)N[C@@H](CCC(=O)O)C(=O)N[C@@H](CC(N)=O)C(=O)NCC(=O)NCC(N)=O)[C@@H](C)O
3 | 76 nM |  | 50 nM | CC(=O)N[C@@H](CS)C(=O)N[C@@H](CCCNC(N)=O)C(=O)N[C@H](C(=O)N[C@@H](Cc1c[nH]c2ccccc12)C(=O)N[C@@H](CCC(N)=O)C(=O)N[C@@H](CS)C(=O)N[C@@H](Cc1ccc(O)cc1)C(=O)N[C@@H](Cc1c[nH]c2ccccc12)C(=O)N[C@@H](CCCNC(=N)N)C(=O)N[C@H](C(=O)N[C@@H](Cc1ccccc1)C(=O)NCC(=O)NCCC(=O)N[C@H](CCCCN)C(N)=O)C(C)C)[C@@H](C)O
4 | 86 nM |  |  | CC(=O)N[C@@H](CS)C(=O)N[C@@H](CCCNC(=N)N)C(=O)N[C@H](C(=O)N[C@@H](Cc1c[nH]c2ccccc12)C(=O)N[C@@H](CCC(N)=O)C(=O)N[C@@H](CS)C(=O)N[C@@H](Cc1ccc(O)cc1)C(=O)N[C@@H](Cc1c[nH]c2ccccc12)C(=O)N[C@@H](CCCNC(=N)N)C(=O)N[C@@H](CCC(=O)O)C(=O)N[C@@H](CC(N)=O)C(=O)NCC(=O)N[C@@H](C)C(=O)N[C@H](CCCCN)C(N)=O)[C@@H](C)O
5 | 125 nM |  |  | CC(=O)N[C@@H](CS)C(=O)N[C@@H](CCC(N)=O)C(=O)N[C@H](C(=O)N[C@@H](Cc1c[nH]c2ccccc12)C(=O)N[C@@H](CCC(N)=O)C(=O)N[C@@H](CS)C(=O)N[C@@H](Cc1cccc2ccccc12)C(=O)N[C@@H](Cc1ccc2ccccc2c1)C(=O)N[C@@H](CCC(C)C)C(=O)N[C@@H](CCC(=O)O)C(=O)N[C@@H](CC(N)=O)C(=O)NCC(N)=O)[C@@H](C)O
6 | 192 nM |  |  | CC(=O)N[C@@H](CS)C(=O)N(C)[C@@H](CCCNC(=N)N)C(=O)N[C@H](C(=O)N[C@@H](Cc1c[nH]c2ccccc12)C(=O)N[C@@H](CCC(N)=O)C(=O)N[C@@H](CS)C(=O)N[C@@H](Cc1ccc(O)cc1)C(=O)N[C@@H](Cc1c[nH]c2ccccc12)C(=O)N[C@@H](CCCNC(=N)N)C(=O)N[C@H](C(=O)N[C@@H](Cc1ccccc1)C(=O)NCC(=O)NCCC(=O)N[C@H](CCCCN)C(N)=O)C(C)C)[C@@H](C)O
7 | 204 nM |  |  | CC(=O)N[C@@H](CS)C(=O)N[C@@H](CO)C(=O)N[C@H](C(=O)N[C@@H](Cc1c[nH]c2ccccc12)C(=O)N[C@@H](CCC(N)=O)C(=O)N[C@@H](CS)C(=O)N[C@@H](Cc1ccc(O)cc1)C(=O)N[C@@H](Cc1c[nH]c2ccccc12)C(=O)N[C@@H](CO)C(=O)N[C@@H](CCCCN)C(=O)N[C@@H](CCC(N)=O)C(=O)N[C@@H](CO)C(=O)NCC(=O)NCC(=O)N[C@@H](CO)C(N)=O)[C@@H](C)O (Ac-CSTWQCYWSKQSGGS-NH2)
8 | 28 nM |  |  | CC(=O)N[C@@H](CS)C(=O)N[C@H](C(=O)N[C@H](C(=O)N[C@@H](Cc1c[nH]c2ccccc12)C(=O)N[C@@H](CCC(N)=O)C(=O)N[C@@H](CS)C(=O)N[C@@H](Cc1ccc(O)cc1)C(=O)N[C@@H](Cc1c[nH]c2ccccc12)C(=O)N[C@@H](CCC(C)C)C(=O)N[C@@H](CCC(=O)O)C(=O)N[C@@H](CC(N)=O)C(=O)NCC(N)=O)[C@@H](C)O)[C@@H](C)O (Ac-CTTWQCYW[hLeu]ENG-NH2)
9 | 69 nM |  |  | CC(=O)N[C@@H](CS)C(=O)N[C@@H](CCCN)C(=O)N[C@H](C(=O)N[C@@H](Cc1c[nH]c2ccccc12)C(=O)N[C@@H](CCC(N)=O)C(=O)N[C@@H](CS)C(=O)N[C@@H](Cc1ccc(O)cc1)C(=O)N[C@@H](Cc1c[nH]c2ccccc12)C(=O)N[C@@H](CCCNC(=N)N)C(=O)N[C@H](C(=O)N[C@@H](Cc1ccccc1)C(=O)NCC(=O)NCCOCC(=O)N[C@H](CCCCN)C(N)=O)C(C)C)[C@@H](C)O
10 | 1000 nM |  |  | CC(=O)N[C@@H](CS)C(=O)N[C@@H](CCC(N)=O)C(=O)N[C@H](C(=O)N[C@@H](Cc1c[nH]c2ccccc12)C(=O)N[C@@H](CCC(N)=O)C(=O)N[C@@H](CS)C(=O)N[C@@H](Cc1ccc(O)cc1)C(=O)N[C@@H](Cc1c[nH]c2ccccc12)C(=O)N[C@@H](CCC(C)C)C(=O)N[C@@H](CCC(=O)O)C(=O)N[C@@H](CC(N)=O)C(=O)N[C@@H](CCC(=O)O)C(N)=O)[C@@H](C)O
11 | 62 nM |  |  | CC(=O)N[C@@H](CS)C(=O)N[C@@H](CCC(N)=O)C(=O)N[C@H](C(=O)N[C@@H](Cc1c[nH]c2ccccc12)C(=O)N[C@@H](CCC(N)=O)C(=O)N[C@@H](CS)C(=O)N[C@@H](Cc1ccc(O)cc1)C(=O)N[C@@H](Cc1c[nH]c2ccccc12)C(=O)N[C@@H](CCCNC(=N)N)C(=O)N[C@H](C(=O)N[C@@H](Cc1ccccc1)C(=O)NCC(=O)NCCOCC(=O)N[C@H](CCCCN)C(N)=O)C(C)C)[C@@H](C)O
12 | 73 nM |  |  | CC(=O)N[C@@H](CS)C(=O)N[C@@H](CCC(N)=O)C(=O)N[C@H](C(=O)N[C@@H](Cc1c[nH]c2ccccc12)C(=O)N[C@@H](CCC(N)=O)C(=O)N[C@@H](CS)C(=O)N[C@@H](Cc1ccc2ccccc2c1)C(=O)N[C@@H](Cc1c[nH]c2ccccc12)C(=O)N[C@@H](CCC(C)C)C(=O)N[C@@H](CCC(=O)O)C(=O)N[C@@H](CC(N)=O)C(=O)NCC(N)=O)[C@@H](C)O
13 | 140 nM |  |  | CC(=O)N[C@@H](CS)C(=O)N[C@@H](CCC(N)=O)C(=O)N[C@H](C(=O)N[C@@H](Cc1c[nH]c2ccccc12)C(=O)N[C@@H](CCC(N)=O)C(=O)N[C@@H](CS)C(=O)N[C@@H](Cc1ccc(O)cc1)C(=O)N[C@@H](Cc1c[nH]c2ccccc12)C(=O)N[C@@H](CCC(C)C)C(=O)N[C@@H](CCC(=O)O)C(=O)N1CCC[C@H]1C(=O)NCC(N)=O)[C@@H](C)O
14 | 85 nM |  |  | CC(=O)N[C@@H](CS)C(=O)N(C)[C@@H](CCC(N)=O)C(=O)N[C@H](C(=O)N[C@@H](Cc1c[nH]c2ccccc12)C(=O)N[C@@H](CCC(N)=O)C(=O)N[C@@H](CS)C(=O)N[C@@H](Cc1ccc(O)cc1)C(=O)N[C@@H](Cc1c[nH]c2ccccc12)C(=O)N[C@@H](CCCNC(=N)N)C(=O)N[C@H](C(=O)N[C@@H](Cc1ccccc1)C(=O)NCC(=O)NCCC(=O)N[C@H](CCCCN)C(N)=O)C(C)C)[C@@H](C)O
15 | 37 nM |  |  | CC(=O)N[C@@H](CS)C(=O)N[C@@H](CCC(N)=O)C(=O)N[C@H](C(=O)N[C@@H](Cc1c[nH]c2ccccc12)C(=O)N[C@@H](CCC(N)=O)C(=O)N[C@@H](CS)C(=O)N[C@@H](Cc1ccc(O)cc1)C(=O)N[C@@H](Cc1cccc2ccccc12)C(=O)N[C@@H](CCC(C)C)C(=O)N[C@@H](CCC(=O)O)C(=O)N[C@@H](CC(N)=O)C(=O)NCC(N)=O)[C@@H](C)O
16 | 25 nM |  |  | CC(=O)N[C@@H](Cc1ccccc1)C(=O)N[C@@H](CS)C(=O)N[C@@H](CCC(N)=O)C(=O)N[C@H](C(=O)N[C@@H](Cc1c[nH]c2ccccc12)C(=O)N[C@@H](CCC(N)=O)C(=O)N[C@@H](CS)C(=O)N[C@@H](Cc1ccc(O)cc1)C(=O)N[C@@H](Cc1c[nH]c2ccccc12)C(=O)N[C@@H](CCC(C)C)C(=O)N[C@@H](CCC(=O)O)C(=O)N[C@@H](CC(N)=O)C(=O)NCC(N)=O)[C@@H](C)O
